Active and inactive are the calls of the source.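 The calls were made as follows: active = fitted curve reaches -35% activity change at a concentration below twice the top valid dose tested; inactive = the rest, including effects opposite to the expected direction.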

This passage reports activity change, negative = cytotoxicity results from PubChem BioAssay AID720587 (Broad Institute, 2013).

The experiment can be described thus: A673 Ewing sarcoma viability loss – cell-based, CellTiter-Glo luminescence, cherry-pick retest, confirmation (AID 720587). To be noted: A673 Ewing sarcoma viability, CellTiter-Glo ATP luminescence, 72 h. For orientation: In ATP-based viability assays light output follows the ATP content of the culture.

In the case of `Cc1c(Cl)cnc(NC(=O)COC(=O)c2ccc3ncsc3c2)c1Cl`, under “at 26 µM (top of the series)”, the activity change, negative = cytotoxicity is 12.1% (inactive). For the compound `Cc1cc2sc3ccc(C#CC4(O)CCCCC4)cc3c(=O)c2cc1C`, under “at 26 µM (top of the series)”, the activity change, negative = cytotoxicity was -2.73% (inactive). On the same count and under the same terms, under `COCc1cc(C)nc2sc(C(=O)NCCO)c(-n3cccc3)c12` stands 13.2% (inactive).

Take `CCOc1ccc(-c2cc(CCCC(=O)N3CCN(c4ccc(OC)cc4)CC3)no2)cc1`: the activity change, negative = cytotoxicity (at 26 µM (top of the series)) is 9.05% (inactive).

For the compound `COc1ccc(C/C(N)=N/OC(C)=O)cc1OC`, the activity change, negative = cytotoxicity (at 26 µM (top of the series)) was 0.039% (inactive). On to `CCc1c(C(=O)NN2C(=O)C3CCCCC3C2=O)csc1C` (stereo not drawn), for which the activity change, negative = cytotoxicity (at 26 µM (top of the series)) was -1.99% (inactive). Turning to `COc1ccc(/C=C2\SC(=O)N(CCCC(=O)Nc3cc(Cl)ccc3C(=O)O)C2=O)cc1`, for the setting “at 26 µM (top of the series)”, the activity change, negative = cytotoxicity was 1.72% (inactive). Still for that read-out and setting: under `Cc1ccsc1C(=O)OCC(=O)NCCC1=CCCCC1` stands 2.01% (inactive). Same read-out and setting: the same measure for `Cc1ccc(Cc2c(-c3ccco3)nc3c(C)cc(Br)cn23)cc1`: 2.77% (inactive); for `CCCCOc1ccc(NC(=O)C(=O)NCCCn2ccnc2)cc1`: -2.77% (inactive); for `CC1=NC(=O)C(N=Nc2cccc(C(=O)O)c2)N1c1ccccc1` (stereo not drawn): -2.93% (inactive). Same read-out and setting: the same measure for `COc1ccc(CCC(C)NCC2CCCCC2)cc1` (stereo not drawn): 2.42% (inactive); for `Cc1ccccc1N=Nc1c(O)n(C)c2ccccc12`: -1.37% (inactive); for `CCCc1nc2ccc(NC(=O)c3cccs3)cc2c(=O)n1Cc1ccccc1Cl`: 3.49% (inactive). With `C[C@@H]1CN([C@H](C)CO)S(=O)(=O)c2ccc(C#CC3CC3)cc2O[C@@H]1CN(C)Cc1ccccc1F`, the activity change, negative = cytotoxicity (at 26 µM (top of the series)) is -19.6% (inactive). As for `Cc1nc2cc(-c3ccc(Cl)cc3)nn2c(C)c1CCC(=O)NC(C)c1ccc2c(c1)OCCO2` (stereo not drawn), the activity change, negative = cytotoxicity (at 26 µM (top of the series)) was -6% (inactive). Consider `CCOc1ccc(C(c2c(NC(=O)c3ccccc3)sc(C)c2C)N2CCN(CCO)CC2)cc1` (stereo not drawn), for which the activity change, negative = cytotoxicity (at 26 µM (top of the series)) was 9.4% (inactive). On to `O=C(O)c1ccc(N/N=C/c2cc(Br)cs2)cc1`, for which the activity change, negative = cytotoxicity (at 26 µM (top of the series)) is -5.62% (inactive). With `CC(C)CC(NC(=O)c1cccs1)c1nnc(SCc2ccc(Cl)c(Cl)c2)n1C` (stereo not drawn), the activity change, negative = cytotoxicity (at 26 µM (top of the series)) was 6.55% (inactive).

As to `Cc1ccc(C(CC(=O)O)Nc2nc(N3CCOCC3)nc(N3CCOCC3)n2)cc1` (stereo not drawn), where the note is “at 26 µM (top of the series)”, the activity change, negative = cytotoxicity was 16.9% (inactive).

With `CC(C)c1ccccc1NC(=O)COC(=O)CCN1C(=O)/C(=C\C=C\c2ccccc2)SC1=S`, the activity change, negative = cytotoxicity (at 26 µM (top of the series)) was -0.202% (inactive). Take `C[C@@H]1CN([C@H](C)CO)C(=O)c2cc(NC(=O)CCCCCC(=O)Nc3ccccc3N)ccc2O[C@H]1CN(C)S(=O)(=O)c1ccc(Cl)cc1`: the activity change, negative = cytotoxicity (at 26 µM (top of the series)) is -2.24% (inactive). Regarding `CCCNC(=O)[C@@H]1[C@@H](CO)[C@@H]2Cn3c(ccc(-c4ccccc4)c3=O)[C@H]1N2C(=O)CC`, for the setting “at 26 µM (top of the series)”, the activity change, negative = cytotoxicity was 14.5% (inactive). Take `Nc1ncn([C@@H]2O[C@H](CO)[C@@H](O)[C@H]2O)c(=O)n1`: where the note is “at 26 µM (top of the series)”, the activity change, negative = cytotoxicity is -13.8% (inactive). As to `N#Cc1cccc(-c2ccc(C3[C@@H]4CN(C(=O)Cc5ccncc5)C[C@H]3N4)cc2)c1` (stereo partly drawn), under “at 26 µM (top of the series)”, the activity change, negative = cytotoxicity was -0.912% (inactive). On to `Cc1ccsc1C(=O)OCC(=O)c1cc(C)n(C)c1C`, for which the activity change, negative = cytotoxicity (at 26 µM (top of the series)) was -0.814% (inactive). Turning to `CCOc1ccc(-c2cc(CCCC(=O)NCc3ccc(C)cc3)no2)cc1`, the activity change, negative = cytotoxicity (at 26 µM (top of the series)) was -9.1% (inactive).

`N#C[C@@H]1[C@H](c2ccc(C#Cc3cccc(F)c3)cc2)[C@@H](CO)N1C(=O)C1CCCC1`: under “at 26 µM (top of the series)”, the activity change, negative = cytotoxicity is -2.07% (inactive). Consider `CC(C)NC(=O)N(C)C[C@@H]1Oc2cc(C#Cc3ccc(F)cc3)ccc2S(=O)(=O)N([C@H](C)CO)C[C@H]1C`, for which, for the setting “at 26 µM (top of the series)”, the activity change, negative = cytotoxicity is -18.2% (inactive). Take `Cc1ccc(/C=C2\SC(=S)N(CCC(=O)NNC(=O)c3ccccc3O)C2=O)cc1`: where the note is “at 26 µM (top of the series)”, the activity change, negative = cytotoxicity was 6.17% (inactive). As to `CN(C)c1ccc(N=Nc2ccc(C(=O)O)cc2)cc1`, under “at 26 µM (top of the series)”, the activity change, negative = cytotoxicity was 1.5% (inactive). For `O=C(C[C@@H]1C[C@H]2c3cc(NC(=O)CC4CC4)ccc3O[C@H]2[C@H](CO)O1)NCc1ccccc1F`, the activity change, negative = cytotoxicity (at 26 µM (top of the series)) was -23.9% (inactive). Take `C=CCOC(=O)c1sc(NC(=O)c2ccc(OC)cc2)nc1C`: the activity change, negative = cytotoxicity (at 26 µM (top of the series)) was -13% (inactive). Consider `O=C(NCc1ccccn1)c1ccc(CNS(=O)(=O)c2cccc(Cl)c2)cc1`, for which, where the note is “at 26 µM (top of the series)”, the activity change, negative = cytotoxicity was 0.155% (inactive).

With `CCCn1c(C)cc(C(=O)CN2C(=O)c3ccccc3S2(=O)=O)c1C`, the activity change, negative = cytotoxicity (at 26 µM (top of the series)) is 11.3% (inactive). In the case of `Cc1cc(Br)ccc1N=C1C(=O)Nc2ccccc21`, for the setting “at 26 µM (top of the series)”, the activity change, negative = cytotoxicity was -19% (inactive). On to `N#C[C@H]1[C@H](c2ccc(C#Cc3ccccc3F)cc2)[C@@H](CO)N1C(=O)C1CCCCC1`, for which the activity change, negative = cytotoxicity (at 23.5 µM (top of the series)) was -7.62% (inactive). Take `Cc1noc(C)c1NC(=O)Nc1ccc2c(c1)CC(=O)N([C@H](C)CO)C[C@@H](C)[C@@H](CN(C)Cc1ccc(Cl)c(Cl)c1)O2`: the activity change, negative = cytotoxicity (at 26 µM (top of the series)) was 7.25% (inactive). Regarding `O=C(NC(=O)c1ccccc1)Nc1ccccc1`, under “at 26 µM (top of the series)”, the activity change, negative = cytotoxicity is -3.17% (inactive).

On to `Cc1cc(-c2nc3cc(F)ccc3s2)ccc1N`, for which the activity change, negative = cytotoxicity (at 26 µM (top of the series)) was -13.6% (inactive). As to `C/C(=N\N(c1ccccc1)c1ccccc1)c1ccco1`, the activity change, negative = cytotoxicity (at 26 µM (top of the series)) was -1.2% (inactive).

Take `CCc1ccc(Cn2ncc3c(C(=O)O)cc(C)nc32)cc1`: the activity change, negative = cytotoxicity (at 26 µM (top of the series)) was 17.3% (inactive).

Turning to `N/C(Cc1nc(-c2ccc(F)cc2)cs1)=N\O`, for the setting “at 26 µM (top of the series)”, the activity change, negative = cytotoxicity is -2.03% (inactive). `Nc1ccc(-c2cc3ccccc3oc2=O)cc1`: where the note is “at 26 µM (top of the series)”, the activity change, negative = cytotoxicity was 3.89% (inactive). `CC(C)(C)C(=O)Nc1ccc(N=Nc2ccccc2)cc1`: for the setting “at 26 µM (top of the series)”, the activity change, negative = cytotoxicity is -13.9% (inactive).

Turning to `CCCNC(=O)N1[C@H](C#N)[C@H](c2ccc(C#Cc3cccc(F)c3)cc2)[C@H]1CO`, the activity change, negative = cytotoxicity (at 23.5 µM (top of the series)) was 5% (inactive).

Take `CCOc1ccccc1CNC(=O)c1ccc(Sc2ccc(Cl)cc2)c(NC(C)=O)c1`: the activity change, negative = cytotoxicity (at 26 µM (top of the series)) is -0.342% (inactive). As to `CCc1ccc(/C=C2\SC(=S)N(CCCC(=O)Nc3cc(C)on3)C2=O)cc1`, where the note is “at 26 µM (top of the series)”, the activity change, negative = cytotoxicity was -3.29% (inactive). Turning to `C[C@@H]1CN([C@@H](C)CO)C(=O)Cc2cc(NC(=O)Cn3cnnn3)ccc2O[C@@H]1CN(C)Cc1ccc(Oc2ccccc2)cc1`, the activity change, negative = cytotoxicity (at 26 µM (top of the series)) was 8.72% (inactive). As to `O=C1C(=O)N(CCS(=O)(=O)c2ccccc2)c2ccc(Cl)cc21`, where the note is “at 26 µM (top of the series)”, the activity change, negative = cytotoxicity was -5.89% (inactive).

Turning to `COc1ccc(C=NNc2nc3ccccc3s2)cc1`, for the setting “at 26 µM (top of the series)”, the activity change, negative = cytotoxicity is 3.07% (inactive). Regarding `Cc1ccsc1/C=N/Nc1cccc(C(=O)O)c1`, the activity change, negative = cytotoxicity (at 26 µM (top of the series)) is -8.75% (inactive).

Regarding `Cc1ccc(Cl)cc1NC(=O)Cn1cc(C(F)(F)F)cc(Cl)c1=O`, the activity change, negative = cytotoxicity (at 26 µM (top of the series)) was 10.1% (inactive). `COc1ccc(OC)c(-c2cc(C(F)(F)F)c3c(n2)sc2c(O)cc(=O)[nH]c23)c1`: the activity change, negative = cytotoxicity (at 26 µM (top of the series)) was -2.54% (inactive). For the compound `Cc1ccc(-c2ccc3c(c2)O[C@@H](CN(C)C(=O)Nc2ccc(F)cc2)[C@H](C)CN([C@@H](C)CO)S3(=O)=O)cc1`, the activity change, negative = cytotoxicity (at 26 µM (top of the series)) is 0.801% (inactive). With `Nc1ccc2oc(-c3cc(Br)ccc3Cl)nc2c1`, where the note is “at 26 µM (top of the series)”, the activity change, negative = cytotoxicity was 2.05% (inactive). Consider `CCn1c(C)cc(C(=O)CN2C(=O)c3ccccc3S2(=O)=O)c1C`, for which the activity change, negative = cytotoxicity (at 26 µM (top of the series)) was 9.42% (inactive). Still for that read-out and setting: under `CC(=O)c1ccc(N(C(=O)Cn2nnc3ccccc32)C(C(=O)NCc2ccccc2)c2ccccn2)cc1` (stereo not drawn) stands 3.66% (inactive); under `O=C(CN1C(=O)C(=O)c2ccccc21)c1ccc(Cl)cc1`, -6.17% (inactive). Same read-out and setting: the same measure for `CCC(C)Cn1c(O)cc2nn(-c3nc4ccccc4s3)c(=O)c-2c1C` (stereo not drawn): -13.1% (inactive); for `CC(NC(=O)c1ccco1)c1nc(-c2ccc(C(C)(C)C)cc2)no1` (stereo not drawn): -2.68% (inactive). Turning to `O=C(Nc1ccc(OC(=O)N2CCCCC2)cc1)N1CCOCC1`, the activity change, negative = cytotoxicity (at 26 µM (top of the series)) was 1.28% (inactive).

Regarding `CO[C@H]1CN(C)C(=O)c2cc(NC(=O)NC(C)C)ccc2OC[C@H](C)N(Cc2ccc(-c3ccccn3)cc2)C[C@@H]1C`, where the note is “at 26 µM (top of the series)”, the activity change, negative = cytotoxicity is -4.3% (inactive). For `Nc1ccc2c(c1)OC1(CCCC1)O2`, where the note is “at 26 µM (top of the series)”, the activity change, negative = cytotoxicity was -14.9% (inactive).

In the case of `Cc1ccsc1/C=N/Nc1ccc(C(=O)O)cc1`, the activity change, negative = cytotoxicity (at 26 µM (top of the series)) is 5.43% (inactive).

Turning to `CCOc1ccc(NC(=O)C(=O)N/N=C\c2ccc(CNS(=O)(=O)c3ccccc3)o2)cc1`, for the setting “at 26 µM (top of the series)”, the activity change, negative = cytotoxicity was -1.27% (inactive). For the compound `CC(C)(C)c1ccc(Oc2ccc(NC(=O)C3CC=CCC3C(=O)O)cc2)cc1` (stereo not drawn), where the note is “at 26 µM (top of the series)”, the activity change, negative = cytotoxicity was 6.05% (inactive).

For `C(=N\Nc1ccc2ccccc2n1)/c1ccc2c(c1)OCO2`, the activity change, negative = cytotoxicity (at 26 µM (top of the series)) is -5.01% (inactive). With `C/C=C/c1ccc(C2[C@@H]3CN(C(=O)Cc4ccccc4)C[C@H]2N3)cc1` (stereo partly drawn), the activity change, negative = cytotoxicity (at 26 µM (top of the series)) is -1.54% (inactive). For the compound `COc1ccc2cc(C(N)=O)/c(=N\NC(=O)c3ccccc3)oc2c1`, the activity change, negative = cytotoxicity (at 26 µM (top of the series)) was -2% (inactive). Still for that read-out and setting: the same measure for `CCCn1nnc(NC(=S)NC(=O)C(C)(C)C)n1`: -3.83% (inactive). As to `C[C@@H]1CN([C@@H](C)CO)C(=O)c2cccc(NC(=O)Nc3ccccc3)c2O[C@@H]1CN(C)Cc1ccc(-c2ccccc2)cc1`, under “at 26 µM (top of the series)”, the activity change, negative = cytotoxicity was -1.33% (inactive). Take `C/C(=N\OCc1cccc(C(=O)O)c1)c1ccc(Cl)cc1`: under “at 26 µM (top of the series)”, the activity change, negative = cytotoxicity is -3.02% (inactive).
